# Assays:
# yeast mitochondria = experiment: Membrane potential ΔΨ of isolated yeast mitochondria (safranin O); format: biochemical, Saccharomyces cerevisiae; settings: BSA absent
# Experimental: The yeast strain W303-1A (Saccharomyces cerevisiae) was grown aerobically at 30° C. in a medium containing 2% lactate, 1% yeast extract, 2% peptone, 0.05% dextrose, and 0.01% adenine at pH 5.0, and cells were harvested during the logarithmic phase (A600=1.8−2.2). Mitochondria were isolated from spheroplasts as previously described (Jung et al., 1997 J. Biol. Chem. 272:21104), except that 0.6 M sucrose was used in the homogenization medium instead of 0.6 M mannitol (Daum et al., 1982 J. Biol. Chem. 257:13028). The resulting preparations were maintained on ice and were suspended in 0.6 M mannitol 20 mM HEPES (K+) (pH 6.8), containing 0.75 mg/ml BSA and 0.1 mM EGTA. Protein concentration was determined by a reduced volume Biuret method in which 50 μl of the final preparation were solubilized by adding an equal volume of 10% deoxycholate (Na+), with 0.4 ml of Biuret reagent added to the resulting mixture. BSA was employed as the standard.
# Unless otherwise noted, mitochondria were incubated at 1 mg protein/ml and at approximately 25° C. in a medium that contained 0.6 M mannitol, 10 mM Pi (K+), 10 mM Hepes (TEA+), pH 7.2, plus 1 mM ethanol as an oxidizable substrate. Compounds having a low solubility in water were added from stock solutions prepared in methanol or DMSO. Ca2+ transport and membrane potential were monitored using the indicating dyes antipyrylazo III (ΔA720-790) and safranin O (ΔA511-533), respectively (Akerman et al., 1976 FEBS Lett. 68:191; Scarpa et al., 1978 Biochem. 17:1378). An SLM Aminco DW-2C spectrophotometer operated in the dual wavelength mode was employed for these purposes. The same instrument, operated in split beam mode, was used to monitor mitochondrial swelling as a decrease in apparent absorbance of mitochondrial suspensions at 540 nm. Oxygen consumption data were obtained using a Clark-type electrode in parallel experiments. Atomic absorption spectroscopy was utilized to monitor the transport of other cations by yeast mitochondria. Briefly, samples were taken at appropriate times and the mitochondria were rapidly sedimented in a microcentrifuge. After carefully removing supernatants, the pellets were solubilized with 2 N percholoric acid (overnight) and centrifuged a second time. The resulting supernatants were diluted with an appropriate volume of distilled water and the concentration of the cation in question was subsequently determined.
# intact yeast = experiment: Aequorin luminescence in intact yeast cells expressing mitochondrially targeted aequorin; format: cell-based, Saccharomyces cerevisiae
# Experimental: Yeast cells (strain X4003-5B; leu2, ade1, his4, met2, ura3, trp5, gal1) obtained from the Yeast Genetic Stock Center (Berkeley, Calif.) were transformed with the pYES2 plasmid, encoding the human mitochondrially targeted apoaequorin fragment, using the lithium acetate method (Sambrook et al., 1989), and INVSc1 cells were transformed with the pGK plasmid encoding the yeast mitochondrially targeted apoaequorin fragment. Selection was carried out on plates prepared with synthetic complete medium minus uracil (SC-U) (Sherman, 1991 Meths. Enzymol. 194:3). Transformed colonies were cultured in a small volume of SC-U and assayed for aequorin activity in vitro as described by Nakajima et al. (1991 Proc. Nat. Acad. Sci. USA 88:6878). Briefly, the cells were harvested by centrifugation, resuspended in lysis buffer (50 mM Tris, 2 mM EDTA, 0.5 mM PMSF, pH 8 w/NaOH), disrupted by vortexing with glass beads, and then treated with 0.1% Triton X-100 to release apoaequorin from the mitochondria. Following centrifugation, 200 μl aliquots of the supernatants were incubated with coelenterazine (2.5 μM) and 2-mercaptoethanol (2 μl), for ˜3 hr while standing on ice, to form the luminescent aequorin from its apoprotein. The coelenterazine cofactor is highly hydrophobic and readily permeates yeast cell membranes (Nakajima et al., 1991) such that reconstitution was conducted without disrupting the cells in some cases. 2-mercaptoethanol was omitted when intact cells were employed. A transformant which yielded high luminescence (named X4003-5B-AEQmito1) was selected for further characterization.
# For preculture, the transformant was inoculated into 50 ml of SC-U plus 2% glucose, and incubated in an air shaker at 180 rpm and 30° C. At 24 hr, the preculture was transferred to 500 ml of a medium containing 1% yeast extract, 2% peptone, 2% lactate, 1% galactose, 0.012% adenine, pH 5 w/NaOH, and growth was continued under conditions which were otherwise the same. […]
# Luminescence measurements were carried out in 6×50 mm culture tubes, using a total volume of 0.3 ml, and were started by injection of 5-20 μl of mitochondria or cells. […] For each value, the ratio of observed luminescence (L) to the potential luminescence remaining (Lmax) was calculated, and compared to a calibration curve which relates this ratio to the free Ca^2+ concentration. […] The total luminescence available initially (Ltotal) must be known and was determined in separate experiments, wherein a saturating Ca^2+ concentration (20 μM) is employed to discharge the aequorin completely. This value allows Lmax to be calculated at any time, as Ltotal minus the sum of luminescence that already occurred. […]
smiles,measurement,setting,value
O=C(COCC(=O)N(C1CCCCC1)C1CCCCC1)N(C1CCCCC1)C1CCCCC1 [ETH 129],"effect on ΔΨ, ionophore together with Ca2+","yeast mitochondria; CaCl2 plus ionophore, FIG. 11C",sustained reduction
same,"effect on ΔΨ, agent alone",yeast mitochondria; FIG. 11B,little effect
same,discharge of aequorin in intact cells,"intact yeast; 6.5 μM ETH 129, FIG. 19A",discharge of essentially all of the aequorin
same,rise of mitochondrial Ca2+ concentration in response to ionophore,"intact yeast; 6.5 μM ETH 129, cells oxidizing ethanol, 14 mM CaCl2, FIG. 20",6 fold

# Reference: US20020090619A1, “Methods for identifying mitochondrial divalent cation transporters” (priority 2000, published 2002)
